According to US11136342B2, “Carbonate prodrugs and methods of using the same” (Acorda Therapeutics, Inc., priority 2008, dated 2021):
≈ marks a conversion by molar mass, not a printed value. Like-named read-outs stand apart in the source and are kept apart here.

Experiments:
Type in all cases: physicochemical
[1] = Solubility of the prodrug in water, glycerol and propylene glycol; settings: for solubility: thermodynamic from solid
Procedure: Solubility of the prodrug (4-acetamidophenyl carbonic) phosphoric anhydride was determined in water, glycerol, and propylene glycol. 10 mg of (4-acetamidophenyl carbonic) phosphoric anhydride was weighed into a vial, small amounts of solvent were added and the mixture was sonicated until a solution formed.

[2] = Prodrug stability in D2O by proton NMR; settings: for Remaining Prodrug: water (D2O), room temperature
Procedure: (4-acetamidophenyl carbonic) phosphoric (29.5 mg) was dissolved in D2O (0.7 mL) and monitored by proton NMR.

[3] = Prodrug stability in propylene glycol-d8 at room temperature by 1H and 31P NMR
Procedure: (4-acetamidophenyl carbonic) phosphoric anhydride (20.4 mg) was dissolved in 600 mg propylene glycol-d8 and ^1H and ^31P NMR spectra were recorded at room temperature. In addition to (4-acetamidophenyl carbonic) phosphoric anhydride (d−766 ppm), there were peaks at d+334, 265 (likely H3PO4) and +203 ppm.

[4] = Prodrug stability in propylene glycol-d8 at low temperature by 1H NMR
Procedure: Two samples of (4-acetamidophenyl carbonic) phosphoric anhydride (20 mg each) were dissolved in propylene glycol-d8 (600 mg) and the samples were stored at 4° C. and −20° C.

## CC(=O)Nc1ccc(OC(=O)OP(=O)(O)O)cc1 [(4-acetamidophenyl carbonic) phosphoric anhydride]
[1]; organic solvent or mixture, glycerol d=1.25 g/mL, read-out: Solubility in glycerol
  solubility: 20.6 mg/mL (≈ 74.9 mM)
[1]; organic solvent or mixture, propylene glycol d=1.036 g/mL, read-out: Solubility in propylene glycol
  solubility: 154 mg/mL (≈ 560 mM)
[1]; water, room temperature, read-out: Solubility in water
  solubility: 152 mg/mL (≈ 552 mM)
[1]; water, room temperature
  Water solubility relative to acetaminophen: more than 10 times
[2]; D2O, 29.5 mg in 0.7 mL
  half-life at 42.1 mg/mL: ~1.5 h
[2]; 3 min
  Remaining Prodrug: 94.4%
[2]; 9 min
  Remaining Prodrug: 90.3%
[2]; 14 min
  Remaining Prodrug: 86.4%
[2]; 29 min
  Remaining Prodrug: 75.7%
[2]; 39 min
  Remaining Prodrug: 70.9%
[2]; 49 min
  Remaining Prodrug: 65.6%
[2]; 60 min
  Remaining Prodrug: 61.0%
[2]; 75 min
  Remaining Prodrug: 55.5%
[2]; 90 min
  Remaining Prodrug: 50.6%
[2]; 105 min
  Remaining Prodrug: 46.0%
[2]; 120 min
  Remaining Prodrug: 41.7%
[2]; 146 min
  Remaining Prodrug: 36.7%
[2]; 188 min
  Remaining Prodrug: 29.3%
[2]; 270 min
  Remaining Prodrug: 20.2%
[2]; 375 min
  Remaining Prodrug: 13.9%
[2]; 420 min
  Remaining Prodrug: 11.7%
[2]; 495 min
  Remaining Prodrug: 8.4%
[2]; 840 min
  Remaining Prodrug: 3.0%
[2]; 1410 min
  Remaining Prodrug: 1.4%
[3]
  half-life at 34 mg/g solvent: ~6.3 h
[3]; 10 min
  Remaining Prodrug 1H NMR: 94.03%
  Remaining Prodrug 31P NMR: 96.7%
[3]; 18 min
  Remaining Prodrug 1H NMR: 92.64%
  Remaining Prodrug 31P NMR: 94.5%
[3]; 28 min
  Remaining Prodrug 1H NMR: 90.79%
  Remaining Prodrug 31P NMR: 92.1%
[3]; 41 min
  Remaining Prodrug 1H NMR: 88.57%
  Remaining Prodrug 31P NMR: 89.9%
[3]; 51 min
  Remaining Prodrug 1H NMR: 86.84%
  Remaining Prodrug 31P NMR: 88.4%
[3]; 61 min
  Remaining Prodrug 1H NMR: 85.36%
  Remaining Prodrug 31P NMR: 86.4%
[3]; 70 min
  Remaining Prodrug 1H NMR: 83.93%
  Remaining Prodrug 31P NMR: 85.0%
[3]; 120 min
  Remaining Prodrug 1H NMR: 74.63%
  Remaining Prodrug 31P NMR: 77.6%
[3]; 169 min
  Remaining Prodrug 1H NMR: 68.80%
  Remaining Prodrug 31P NMR: 71.7%
[3]; 228 min
  Remaining Prodrug 1H NMR: 62.97%
  Remaining Prodrug 31P NMR: 64.9%
[3]; 297 min
  Remaining Prodrug 1H NMR: 56.82%
  Remaining Prodrug 31P NMR: 57.4%
[3]; 345 min
  Remaining Prodrug 1H NMR: 52.10%
  Remaining Prodrug 31P NMR: 52.8%
[3]; 380 min
  Remaining Prodrug 1H NMR: 49.13%
  Remaining Prodrug 31P NMR: 49.6%
[3]; 425 min
  Remaining Prodrug 1H NMR: 46.33%
  Remaining Prodrug 31P NMR: 46.6%
[3]; 446 min
  Remaining Prodrug 1H NMR: 45.67%
  Remaining Prodrug 31P NMR: 44.0%
[3]; 1269 min
  Remaining Prodrug 1H NMR: 19.61%
  Remaining Prodrug 31P NMR: 17.1%
[4]; propylene glycol-d8, 4° C. and −20° C.
  Effect of low temperature storage on stability: low temperature storage improved the stability
[4]; propylene glycol-d8, 4° C., 0.17 h
  Acetaminophen Formation: 7.1%
[4]; propylene glycol-d8, 4° C., 19.3 h
  Acetaminophen Formation: 37.8%
[4]; propylene glycol-d8, 4° C., 44.5 h
  Acetaminophen Formation: 58.5%
[4]; propylene glycol-d8, 4° C., 68.7 h
  Acetaminophen Formation: 71.5%
[4]; propylene glycol-d8, 4° C., 94.0 h
  Acetaminophen Formation: 79.3%
[4]; propylene glycol-d8, 4° C., 116 h
  Acetaminophen Formation: 83.1%
[4]; propylene glycol-d8, 4° C., 140 h
  Acetaminophen Formation: 84.6%
[4]; propylene glycol-d8, −20° C., 0.17 h
  Acetaminophen Formation: 10.1%
[4]; propylene glycol-d8, −20° C., 19.3 h
  Acetaminophen Formation: 15.0%
[4]; propylene glycol-d8, −20° C., 44.5 h
  Acetaminophen Formation: 20.5%
[4]; propylene glycol-d8, −20° C., 68.7 h
  Acetaminophen Formation: 25.0%
[4]; propylene glycol-d8, −20° C., 94.0 h
  Acetaminophen Formation: 29.0%
[4]; propylene glycol-d8, −20° C., 116 h
  Acetaminophen Formation: 32.2%
[4]; propylene glycol-d8, −20° C., 140 h
  Acetaminophen Formation: 36.2%
